# Measurements taken from patent US11230526B1, “Cylcoalkenyl derivatives useful as agonists of the GPR120 and/or GPR40 receptors” (Janssen Pharmaceutica NV, priority 2018, dated 2022).
# What was measured:
# Format in all cases: cell-based
# [1] = molecular target: T1, short form of the GPR120 receptor (Homo sapiens, UniProt Q5NUL3); experiment: Human GPR120 DiscoveRx PathHunter Beta-Arrestin assay, Procedure β-arrestin B
# T1 construct: host or cells: PathHunter CHO-K1 GPR120S β-Arrestin Cell Line
# T1 sequence (P32121 whole entry partner, one chain of several): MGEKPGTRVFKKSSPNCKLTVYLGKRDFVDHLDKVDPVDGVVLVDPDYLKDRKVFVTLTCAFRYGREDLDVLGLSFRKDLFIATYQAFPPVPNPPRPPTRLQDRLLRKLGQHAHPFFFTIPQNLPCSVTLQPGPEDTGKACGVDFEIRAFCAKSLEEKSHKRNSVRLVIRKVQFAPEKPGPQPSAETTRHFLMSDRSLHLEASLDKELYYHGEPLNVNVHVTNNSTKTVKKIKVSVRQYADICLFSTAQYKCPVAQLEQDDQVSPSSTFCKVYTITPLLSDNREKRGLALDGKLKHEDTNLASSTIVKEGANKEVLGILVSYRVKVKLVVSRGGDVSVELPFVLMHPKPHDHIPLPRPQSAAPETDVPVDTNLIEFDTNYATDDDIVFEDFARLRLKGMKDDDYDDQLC
# From the text: Human GPR120 DiscoveRx PathHunter® Beta-Arrestin Assay Assay Principle:
# The binding of an agonist (medium/long chain fatty acids or small molecule agonists) to the G-protein-coupled receptor GPR120 activates phospholipase C, leading to release of intracellular Ca^+2 through the generation of inositol 1,4,5-trisphosphate (InsP3 or IP3). GPR120 activation can also trigger intracellular signaling via recruitment of Beta-Arrestin. In the present method, agonist-induced activation of the human GPR120 receptor is monitored through the use of PathHunter® CHO-K1 GPR120 Beta-Arrestin Cell Line engineered by DiscoveRx, as detailed below. The cell lines are designed to co-express both the ProLink/Enzyme Donor (PK)-tagged GPCR and the Enzyme […] (EA)-tagged Beta-Arrestin fusion proteins. Upon GPR120 receptor stimulation/activation, the EA-tagged Beta-Arrestin portion is translocated to the tagged receptor, where the two enzyme fragments are brought within close proximity. Under these conditions, these fragments can interact and form an active Beta-gal enzyme complex through Enzyme Fragment Complementation (EFC). This active Beta-gal complex can enzymatically hydrolyse the substrate to produce a detectable light signal; therefore, activation as a function of agonist concentration can be expressed as an EC50 value to determine relative compound activities. This in vitro assay therefore serves to assess compound agonist activity of the GPR120.
# In Procedure β-arrestin B the cells used were PathHunter® CHO-K1 GPR120S β-Arrestin Cell Line, expressing the short form of the GPR120 receptor (Accession #[…]), with 5000 cells/well.
# The selected CHO-K1 GPR120 β-Arrestin cells were cultured in Ham's F12 media supplemented with 10% fetal bovine serum (FBS), 1% Glutamine, 1×p/s, 800 μg/mL G418 and 300 μg/mL Hygromycin B (for selection). Cell stocks were maintained and grown in a sub-confluent state using standard cell culture procedures. The day before the experiment, the cells were harvested with non-enzymatic cell dissociation buffer and re-suspended in complete growth media at the desired concentration. A Corning 384-plate was then seeded with the proper number of cells in a volume of 25 μL, per well. The seeded plates were incubated overnight at 37° C.
# On the day of the experiment, the Assay Buffer containing (a) HBSS with Ca^++ and Mg^++, (b) 20 mM HEPES, and (c) 0.1% BSA stabilizer (pH 7.4) was prepared. The growth medium was gently removed from the cell plates and 20 μL of Assay Buffer added to each well. The plate was then incubated at 37° C. for 60 min. Test compounds were serially diluted in Assay Buffer to desired concentrations (more particularly to one or more of the following μM concentrations: 25, 12.5, 6.25, 3.12, 1.56, 0.78, 0.39, 0.19, 0.10, 0.05, 0.02, 0.01). Five μL of compound dilution was then added to each well and the plate incubated at 37° C. for 90 min. The detection reagents were prepared according to the manufacture's instruction. Twelve μL of the detection reagents were added to each well and the plate incubated at room temperature for 60 min.
# The plates were read on an EnVision instrument, using Protocol name: Luminescence, Plate type: 384 Costar, Measurement height: 3 mm, Measurement time: 1 s, Aperture: 384 Plate aperture. The % Activity relative to the positive control was calculated using the following equation:
# The % Activity values were plotted versus the concentration of test compound and fitted to a sigmoidal dose-response curve with a Hill slope=1 (fixed value) using nonlinear regression with GraphPad Prism 5.0 to calculate the EC50 values. The Fitting Equation was: Y=Bottom+(Top-Bottom)/(1+10^((Log EC50−X)*HillSlope)), where X is the log of the concentration and Y is the response.
# [2] = molecular target: T2, Human GPR120 short form (Homo sapiens, UniProt Q5NUL3); experiment: Human GPR120 calcium flux assay, Procedure Calcium A (2500 cells/well)
# T2 construct: expressed in transfected cells
# T2 sequence (Q5NUL3 1-361): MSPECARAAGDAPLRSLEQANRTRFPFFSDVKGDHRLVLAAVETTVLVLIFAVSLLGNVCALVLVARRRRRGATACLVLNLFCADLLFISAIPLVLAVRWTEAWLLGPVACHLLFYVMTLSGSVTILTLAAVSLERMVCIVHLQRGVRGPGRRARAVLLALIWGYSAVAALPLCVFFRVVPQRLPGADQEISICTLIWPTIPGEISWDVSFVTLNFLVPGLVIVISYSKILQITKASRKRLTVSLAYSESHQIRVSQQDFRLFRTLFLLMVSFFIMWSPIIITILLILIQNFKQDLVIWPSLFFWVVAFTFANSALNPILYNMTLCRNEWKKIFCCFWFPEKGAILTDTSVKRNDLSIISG
# In short: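 HEK293 cells stably expressing human GPR120 short isoform (NM_001195755.1), 2500 cells/well, serum-starved 1 h at 37 °C and loaded with Fluo-4 NW plus probenecid. FLIPR fluorescence read for 300 s after compound addition; response = Fmax−Fmin. EC50 from four-parameter concentration–response fit.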
# [3] = molecular target: T2, Human GPR120 short form; experiment: Human GPR120 calcium flux assay, Procedure Calcium B (4200 cells/well)
# In short: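 Agonist EC50 came from a four-parameter fit of RFU (Fmax−Fmin) read over 300 s on FLIPR. Cells were HEK293 stably transfected with human GPR120 (NM_001195755.1) at 4200 per well, serum-starved 1 h and loaded with Fluo-4 NW dye with probenecid before ligand addition.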
EC50 [1] [µM],EC50 [2] [µM],EC50 [3] [µM],SMILES
0.126,0.406,0.091,"Cc1c(CCC(=O)O)ccc(OCC2=C(c3cccs3)CCCC2)c1C [Compound 482, 3-[2,3-dimethyl-4-[[2-(2-thienyl)cyclohexen-1-yl]methoxy]phenyl]Propanoic Acid]"
0.717,0.576,0.185,"CSc1ccc(C2=C(COc3ccc(CCC(=O)O)c(C)c3C)CCCC2)cc1 [Compound 492, 3-[2,3-dimethyl-4-[[2-(4-methylsulfanylphenyl)cyclohexen-1-yl]methoxy]phenyl]Propanoic Acid]"
